Test results taken from the supplement of paper PMC13380429.

How the values were obtained:
Conditions in all cases: 72 h
U2OS [1] = assay: drug sensitivity score (DSS) for viability; higher = more toxic; extreme values may be limits of the assay
Vero E6 [2] = assay: as above
Calu-3 [3] = assay: as above
HepG2 [4] = assay: as above
Caco-2 [5] = assay: as above
U2OS [6] = assay: relative viability EC50 (midpoint between 100% and the lowest measured viability); higher = less toxic
Calu-3 [7] = assay: as above
Caco-2 [8] = assay: as above
HepG2 [9] = assay: as above
U2OS [10] = assay: cell viability relative to DMSO; higher = less toxic
Calu-3 [11] = assay: as above
Caco-2 [12] = assay: as above
HepG2 [13] = assay: as above
Vero E6 [14] = assay: as above

Row | SMILES | drug sensitivity score (U2OS [1]) | drug sensitivity score (Vero E6 [2]) | drug sensitivity score (Calu-3 [3]) | drug sensitivity score (HepG2 [4]) | drug sensitivity score (Caco-2 [5]) | relative viability EC50 (U2OS [6]) [µM] | relative viability EC50 (Calu-3 [7]) [µM] | relative viability EC50 (Caco-2 [8]) [µM] | relative viability EC50 (HepG2 [9]) [µM] | cell viability (U2OS [10]; 1 nM) [%] | cell viability (U2OS [10]; 10 nM) [%] | cell viability (U2OS [10]; 100 nM) [%] | cell viability (U2OS [10]; 1000 nM) [%] | cell viability (U2OS [10]; 10000 nM) [%] | cell viability (Calu-3 [11]; 1 nM) [%] | cell viability (Calu-3 [11]; 10 nM) [%] | cell viability (Calu-3 [11]; 100 nM) [%] | cell viability (Calu-3 [11]; 1000 nM) [%] | cell viability (Calu-3 [11]; 10000 nM) [%] | cell viability (Caco-2 [12]; 1 nM) [%] | cell viability (Caco-2 [12]; 10 nM) [%] | cell viability (Caco-2 [12]; 100 nM) [%] | cell viability (Caco-2 [12]; 1000 nM) [%] | cell viability (Caco-2 [12]; 10000 nM) [%] | cell viability (HepG2 [13]; 1 nM) [%] | cell viability (HepG2 [13]; 10 nM) [%] | cell viability (HepG2 [13]; 100 nM) [%] | cell viability (HepG2 [13]; 1000 nM) [%] | cell viability (HepG2 [13]; 10000 nM) [%] | cell viability (Vero E6 [14]; 1 nM) [%] | cell viability (Vero E6 [14]; 10 nM) [%] | cell viability (Vero E6 [14]; 100 nM) [%] | cell viability (Vero E6 [14]; 1000 nM) [%] | cell viability (Vero E6 [14]; 10000 nM) [%]
1 | COc1ccc2c(c1OC)C(=O)O[C@@H]2[C@H]1c2cc3c(cc2CCN1C)OCO3 [hydrastine-(1R,9S)] | 0 | 0 | 0 | 0 |  |  |  |  |  |  |  |  |  |  |  |  |  |  |  |  |  |  |  |  |  |  |  |  |  |  |  |  |  | 
2 | CN1[C@@H]2CC[C@H]1C[C@@H](OC(=O)[C@H](CO)c1ccccc1)C2 [hyoscyamine] | 0 |  | 0 | 0 | 0 | > 10 | > 10 | > 10 | > 10 | 98.9 | 101 | 97.8 | 101 | 99.9 | 103 | 91.6 | 99.9 | 97.2 | 99.4 | 103 | 99.8 | 95 | 94.2 | 89.6 | 111 | 98.2 | 106 | 89.3 | 104 |  |  |  |  | 
3 | COC(=O)C1=C(C)NC(C)=C(C(=O)OC(C)C)[C@@H]1c1cccc2nonc12 [isradipine] | 0 |  | 0 | 0 | 0 | > 10 | > 10 | > 10 | > 10 | 103 | 97.9 | 104 | 102 | 98.5 | 101 | 98.9 | 91.7 | 97.9 | 95.2 | 107 | 96.2 | 99.3 | 93.5 | 94.2 | 98.9 | 103 | 105 | 106 | 95.9 |  |  |  |  | 
4 | C=C(C)[C@H]1CN[C@H](C(=O)O)[C@H]1CC(=O)O [kainic-acid] | 0 |  | 0 | 0 | 0 | > 10 | > 10 | > 10 | > 10 | 99.7 | 99.4 | 101 | 99.8 | 95.6 | 93.4 | 88.2 | 93.5 | 90.3 | 98.3 | 97.5 | 95.7 | 96.7 | 104 | 96.8 | 106 | 105 | 110 | 102 | 93.7 |  |  |  |  | 
5 | C[N+]1(C)[C@@H]2C[C@@H](OC(=O)[C@H](CO)c3ccccc3)C[C@H]1[C@@H]1O[C@@H]12 [methscopolamine] | 0 | 0 | 0 | 0 |  |  |  |  |  |  |  |  |  |  |  |  |  |  |  |  |  |  |  |  |  |  |  |  |  |  |  |  |  | 
6 | Cc1ccc(-n2nc(C(C)(C)C)cc2NC(=O)NCc2cc(F)ccc2Oc2ccc3c(cnn3CCO)c2)cc1 [pexmetinib] | 4.5 | 1.4 | 0 | 7 | 2.1 |  | > 10 | > 10 | 2.4 | 96.8 | 90.8 | 97.1 | 80.9 | 54.3 | 100 | 85.9 | 93.2 | 95.8 | 91 | 100 | 93.2 | 91.4 | 84.3 | 81.4 | 96.9 | 109 | 104 | 90.7 | 0.1 | 97.6 | 100 | 91.2 | 104 | 64.7
7 | OCc1ccccc1O[C@@H]1O[C@H](CO)[C@@H](O)[C@H](O)[C@H]1O [salicin] | 0 | 0 | 0 | 0 |  |  |  |  |  |  |  |  |  |  |  |  |  |  |  |  |  |  |  |  |  |  |  |  |  |  |  |  |  | 
8 | Cc1ncc([N+](=O)[O-])n1CC(C)O (stereo unspecified) [secnidazole] | 0 | 0 | 0.4 | 0 |  |  |  |  |  |  |  |  |  |  |  |  |  |  |  |  |  |  |  |  |  |  |  |  |  |  |  |  |  | 
9 | CO[C@H]1C[C@@H]2CC[C@@H](C)[C@@](O)(O2)C(=O)C(=O)N2CCCC[C@H]2C(=O)O[C@H]([C@H](C)C[C@@H]2CC[C@@H](O)[C@H](OC)C2)CC(=O)[C@H](C)/C=C(\C)[C@@H](O)[C@@H](OC)C(=O)[C@H](C)C[C@H](C)/C=C/C=C/C=C/1C [sirolimus] | 21.2 | 17.5 | 29 | 17.5 | 22.7 |  | < 0.001 |  |  | 77 | 57.9 | 60.3 | 55.8 | 59.9 | 65.3 | 42.2 | 42.6 | 47.5 | 47.3 | 72.7 | 55.4 | 56.8 | 52 | 54.2 | 78.3 | 63.9 | 60.4 | 66.1 | 53.7 | 92.3 | 69.4 | 58.6 | 55.9 | 60.6
10 | O=c1[nH]c(=O)n([C@H]2C[C@H](O)[C@@H](CO)O2)cc1C(F)(F)F [trifluridine] |  | 1.2 | 0 | 7.8 | 0.9 |  | > 10 | > 10 | 0.923 |  |  |  |  |  | 106 | 121 | 103 | 100 | 97.7 | 93.3 | 93.9 | 98.4 | 94 | 81.7 | 95.9 | 93.2 | 104 | 64.8 | 36.1 | 101 | 105 | 108 | 102 | 69.5
